Experimental data taken from patent US20210196627A1, “SYSTEMS FOR ENTERIC DELIVERY OF THERAPEUTIC AGENTS” (Lyndra, Inc., priority 2018, published 2021).

Test: Memantine bioanalysis in plasma after duodenal placement of stellate system (LC-MS/MS)
Assay type: in vivo, beagle dogs
From the text: Six male beagle dogs (each weighing ˜10 kg) were anesthetized and intubated, and stellate-shaped systems bearing memantine drug arms were placed endoscopically through the pylorus into the duodenum. Each stellate system contained steel beads at the tips of the drug arms which facilitated X-ray imaging for confirming successful duodenal placement.
X-rays were collected daily to monitor residence time in the small intestine. Blood samples were collected through Day 10 of the study and processed to plasma for quantitation of memantine using an LC-MS/MS assay. The dogs were monitored for the duration of the study for safety.

For `CC12CC3CC(C)(C1)CC(N)(C3)C2` [memantine], the “time for which sustained release of memantine was measurable” value (dog plasma, stellate system placed in duodenum, blood sampled through Day 10) was 7 days, the Tmax (male, beagle, memantine in dog plasma, stellate system placed endoscopically in duodenum) was 8 h and the “exposure from the small intestine” value (memantine in dog plasma, stellate system placed in duodenum) was “good exposure”.
